Data on eleven compounds can be found in patent US20250215029A1 (Recludix Pharma, Inc., priority 2022, published 2025).

Like-named read-outs stand apart in the source and are kept apart here.

In assay [1] the target is T1, pY641-STAT6 in PBMC (Homo sapiens, UniProt P42226).
T1 construct: Cryopreserved Peripheral Blood Mononuclear Cells (PBMC) are from AllCells; host or cells: cryopreserved PBMC
T1 sequence (P42226 1-847): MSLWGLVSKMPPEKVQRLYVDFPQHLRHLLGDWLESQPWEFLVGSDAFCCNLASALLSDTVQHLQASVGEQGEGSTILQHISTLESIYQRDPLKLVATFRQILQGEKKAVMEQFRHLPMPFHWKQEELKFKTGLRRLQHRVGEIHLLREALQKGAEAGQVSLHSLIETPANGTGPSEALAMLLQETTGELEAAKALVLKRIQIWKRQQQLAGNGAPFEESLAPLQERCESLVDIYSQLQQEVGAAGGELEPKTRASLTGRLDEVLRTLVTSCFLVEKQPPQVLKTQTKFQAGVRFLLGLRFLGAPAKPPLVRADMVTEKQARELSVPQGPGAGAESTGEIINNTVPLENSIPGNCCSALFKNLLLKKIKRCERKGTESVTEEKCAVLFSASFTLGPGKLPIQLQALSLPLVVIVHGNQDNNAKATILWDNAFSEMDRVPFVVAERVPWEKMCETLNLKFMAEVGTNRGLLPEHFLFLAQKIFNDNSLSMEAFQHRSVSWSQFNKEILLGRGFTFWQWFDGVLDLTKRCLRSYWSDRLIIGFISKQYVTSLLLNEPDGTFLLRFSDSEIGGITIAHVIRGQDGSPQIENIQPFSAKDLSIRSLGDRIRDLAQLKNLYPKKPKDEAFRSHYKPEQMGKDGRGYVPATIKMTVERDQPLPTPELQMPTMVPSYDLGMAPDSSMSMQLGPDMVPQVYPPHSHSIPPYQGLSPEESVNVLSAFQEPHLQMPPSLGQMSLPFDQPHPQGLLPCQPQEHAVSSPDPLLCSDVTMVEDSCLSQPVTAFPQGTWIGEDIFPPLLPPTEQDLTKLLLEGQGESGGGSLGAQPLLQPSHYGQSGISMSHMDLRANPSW
Briefly: MSD-pSTAT-PBMC Assay (pSTAT6, IL-4 stimulated). The class given is cell-based. The conditions noted are these: compound 3 hrs, then 1 ng/mL IL-4 for 10 min, Table 1114. A digest of the protocol: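 Thawed human PBMC rested overnight in IMDM/10% FBS, then got compound for 3 hrs before a 10 min cytokine pulse: 1 ng/mL IL-4 for pSTAT6, 10 ng/mL IL-6 for pSTAT3. Lysates went to MSD sandwich capture on total STAT6 or STAT3 with phospho-specific detection. IC50 came from background-subtracted, DMSO-normalized signal.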

The target of assay [2] is T2, pY705-STAT3 in PBMC (Homo sapiens, UniProt P40763).
T2 construct: Cryopreserved Peripheral Blood Mononuclear Cells (PBMC) are from AllCells; host or cells: cryopreserved PBMC
T2 sequence (P40763 whole entry): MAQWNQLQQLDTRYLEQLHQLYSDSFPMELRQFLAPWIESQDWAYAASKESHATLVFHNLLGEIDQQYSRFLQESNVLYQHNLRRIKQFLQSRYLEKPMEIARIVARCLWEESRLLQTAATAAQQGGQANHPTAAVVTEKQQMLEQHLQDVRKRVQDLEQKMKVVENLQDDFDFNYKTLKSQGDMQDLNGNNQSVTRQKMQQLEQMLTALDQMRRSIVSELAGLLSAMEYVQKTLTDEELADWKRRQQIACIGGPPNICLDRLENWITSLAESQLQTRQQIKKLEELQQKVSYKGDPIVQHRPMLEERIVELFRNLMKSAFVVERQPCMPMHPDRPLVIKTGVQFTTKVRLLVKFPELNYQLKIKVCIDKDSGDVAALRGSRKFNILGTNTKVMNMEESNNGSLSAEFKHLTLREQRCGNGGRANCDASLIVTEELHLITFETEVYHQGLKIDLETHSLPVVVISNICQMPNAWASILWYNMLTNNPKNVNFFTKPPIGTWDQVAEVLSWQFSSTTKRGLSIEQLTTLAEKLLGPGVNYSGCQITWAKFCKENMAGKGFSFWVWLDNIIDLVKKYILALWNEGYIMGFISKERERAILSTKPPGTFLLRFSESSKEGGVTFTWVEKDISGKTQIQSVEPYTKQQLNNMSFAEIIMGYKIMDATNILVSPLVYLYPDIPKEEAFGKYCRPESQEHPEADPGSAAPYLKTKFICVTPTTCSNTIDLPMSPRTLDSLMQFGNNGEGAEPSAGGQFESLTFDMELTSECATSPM
Nature of the assay: MSD-pSTAT-PBMC Assay (pSTAT3, IL-6 stimulated). The class given is cell-based. The conditions noted are these: PBMC, compound 3 hrs, then 10 ng/mL IL-6 for 10 min; Table 1114; read-out: pSTAT3. A digest of the protocol:
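MSD electrochemiluminescence read-out: total STAT captured, probed with anti-pY641-STAT6 or anti-pY705-STAT3. Human PBMC, 3 h compound pretreatment, 10 min stimulation (IL-4 1 ng/mL or IL-6 10 ng/mL). Unstimulated signal subtracted, DMSO-normalized, variable-slope IC50.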

Turning to `CCCC(=O)SCCOP(=O)(Cc1ccc2sc(C(=O)N[C@H]3CCCC[C@H]4CC[C@@H](C(=O)N5CC(C#N)C(c6ccccc6)C5)N4C3=O)cc2c1)OCCSC(=O)CCC` (single isomer, unassigned) [Compound 125, S,S′-(((((2-(((3S,6S,10aS)-3-((3S,4R or 3R,4S)-3-cyano-4-phenylpyrrolidine-1-carbonyl)-5-oxodecahydropyrrolo[1,2-a]azocin-6-yl)carbamoyl)benzo[b]thiophen-5-yl)methyl)phosphoryl)bis(oxy))bis(ethane-2,1-diyl))dibutanethioate], the IC50 in assay [1] (PBMC, read-out: pSTAT6) was 1 to 3 µM; in assay [2], above 3 µM.

In the case of `CC(C)(C)C(=O)SCCOP(=O)(OCCSC(=O)C(C)(C)C)C(F)(F)c1ccc2sc(C(=O)N[C@H]3CCCC[C@H]4CC[C@@H](C(=O)N5C[C@@H](C#N)[C@H](c6ccccc6)C5)N4C3=O)cc2c1` (single isomer, unassigned) [Compound 127, S,S′-(((((2-(((3S,6S,10aS)-3-((3S,4R or 3R,4S)-3-cyano-4-phenylpyrrolidine-1-carbonyl)-5-oxodecahydro-pyrrolo[1,2-a]azocin-6-yl)carbamoyl)benzo[b]thiophen-5-yl)difluoromethyl)phosphoryl)bis(oxy))bis(ethane-2,1-diyl))bis(2,2-dimethylpropane-thioate], the IC50 in assay [1] (PBMC, read-out: pSTAT6) was in the range of 0.1 to 1 µM; in assay [2], 1 to 3 µM.

For `CCCC(=O)SCCOP(=O)(Oc1ccccc1)C(F)(F)c1ccc2sc(C(=O)N[C@H]3CCCC[C@H]4CC[C@@H](C(=O)N5C[C@H](c6ccccc6)[C@@H](C#N)C5)N4C3=O)cc2c1` (single isomer, unassigned) [Compound 128, S-(2-((((2-(((3S,6S,10aS)-3-((3R,4S or 3S,4R)-3-cyano-4-phenylpyrrolidine-1-carbonyl)-5-oxodecahydro-pyrrolo[1,2-a]azocin-6-yl)carbamoyl)benzo[b]thiophen-5-yl)difluoromethyl) (phenoxy)phosphoryl)oxy)ethyl) butanethioate], the IC50 in assay [1] (pSTAT6, PBMC) was 0.1 to 1 µM; in assay [2], above 3 µM.

Consider `CC(C)(C)C(=O)SCCOP(=O)(OCCSC(=O)C(C)(C)C)C(F)(F)c1ccc2sc(C(=O)N[C@H]3C[C@@H](O)CC[C@H]4CC[C@@H](C(=O)N5C[C@@H](C#N)[C@H](c6ccccc6)C5)N4C3=O)cc2c1` (single isomer, unassigned) [Compound 129, S,S′-(((((2-(((3S,6S,8S,10aR)-3-((3S,4R or 3R,4S)-3-cyano-4-phenylpyrrolidine-1-carbonyl)-8-hydroxy-5-oxodecahydro-pyrrolo[1,2-a]azocin-6-yl)carbamoyl)benzo [b]thiophen-5-yl)difluoromethyl)phosphoryl)bis(oxy))bis(ethane-2,1-diyl)) bis(2,2-dimethylpropane-thioate], for which the IC50 in assay [1] (PBMC, read-out: pSTAT6) was 0.1 to 1 µM; in assay [2], above 3 µM.

For the compound `CC(C)(C)C(=O)SCCOP(=O)(Oc1ccccc1)C(F)(F)c1ccc2sc(C(=O)N[C@H]3CCCC[C@H]4CC[C@@H](C(=O)N5C[C@H](c6ccccc6)[C@@H](C#N)C5)N4C3=O)cc2c1` (single isomer, unassigned) [Compound 133, S-(2-((((2-(((3S,6S,10aS)-3-((3S,4R or 3R,4S)-3-cyano-4-phenylpyrrolidine-1-carbonyl)-5-oxodecahydro-pyrrolo[1,2-a]azocin-6-yl)carbamoyl)benzo[b]thiophen-5-yl)difluoromethyl) (phenoxy)phosphoryl)oxy)ethyl)-2,2-dimethylpropane-thioate], the IC50 was 0.1 to 1 µM in assay [1] (pSTAT6, PBMC) and above 3 µM in assay [2].

`CC(C)(C)C(=O)SCCOP(=O)(Oc1ccc(C#N)cc1)C(F)(F)c1ccc2sc(C(=O)N[C@H]3CCCC[C@H]4CC[C@@H](C(=O)N5C[C@@H](C#N)[C@H](c6ccccc6)C5)N4C3=O)cc2c1` (single isomer, unassigned) [Compound 134, S-(2-((((2-(((3S,6S,10aS)-3-((3S,4R or 3R,4S)-3-cyano-4-phenylpyrrolidine-1-carbonyl)-5-oxodecahydro-pyrrolo[1,2-a]azocin-6-yl)carbamoyl)benzo[b]thiophen-5-yl)difluoromethyl)(4-cyanophenoxy)phosphoryl)oxy)ethyl)-2,2-dimethylpropane-thioate]: the IC50 in assay [1] (pSTAT6, PBMC) is 0.1 to 1 µM; in assay [2], above 3 µM.

Turning to `CC(C)CC(=O)SCCOP(=O)(OCCSC(=O)CC(C)C)C(F)(F)c1ccc2sc(C(=O)N[C@H]3C[C@@H](O)CC[C@H]4CC[C@@H](C(=O)N5C[C@@H](C#N)[C@H](c6ccccc6)C5)N4C3=O)cc2c1` (single isomer, unassigned) [Compound 135, S,S′-(((((2-(((3S,6S,8S,10aR)-3-((3S,4R or 3R,4S)-3-cyano-4-phenylpyrrolidine-1-carbonyl)-8-hydroxy-5-oxodecahydro-pyrrolo[1,2-a]azocin-6-yl)carbamoyl)benzo[b]thiophen-5-yl)difluoromethyl)phosphoryl)bis(oxy))bis (ethane-2,1-diyl)) bis(3-methylbutane-thioate)], the IC50 in assay [1] (PBMC, read-out: pSTAT6) was 0.1 to 1 µM; in assay [2], above 3 µM.

Turning to `CC(C)(C)C(=O)SCCOP(=O)(Oc1cccc(C#N)c1)C(F)(F)c1ccc2sc(C(=O)N[C@H]3CCCC[C@H]4CC[C@@H](C(=O)N5C[C@@H](C#N)[C@H](c6ccccc6)C5)N4C3=O)cc2c1` (single isomer, unassigned) [Compound 137, S-(2-((((2-(((3S,6S,10aS)-3-((3S,4R or 3R,4S)-3-cyano-4-phenylpyrrolidine-1-carbonyl)-5-oxodecahydro-pyrrolo[1,2-a]azocin-6-yl)carbamoyl)benzo[b]thiophen-5-yl)difluoromethyl)(3-cyanophenoxy)phosphoryl)oxy)ethyl)-2,2-dimethylpropane-thioate], the IC50 in assay [1] (pSTAT6, PBMC) was 0.1 to 1 µM; in assay [2], above 3 µM.

For the compound `CCCC(=O)SCCOP(=O)(Oc1cccc(C#N)c1)C(F)(F)c1ccc2sc(C(=O)N[C@H]3CCCC[C@H]4CC[C@@H](C(=O)N5C[C@@H](C#N)[C@H](c6ccccc6)C5)N4C3=O)cc2c1` (single isomer, unassigned) [Compound 138, S-(2-((((2-(((3S,6S,10aS)-3-((3S,4R or 3R,4S)-3-cyano-4-phenylpyrrolidine-1-carbonyl)-5-oxodecahydro-pyrrolo[1,2-a]azocin-6-yl)carbamoyl)benzo[b]thiophen-5-yl)difluoromethyl) (3-cyanophenoxy)phosphoryl)oxy)ethyl)butane-thioate], the IC50 in assay [1] (pSTAT6, PBMC) was 0.1 to 1 µM; in assay [2], above 3 µM.

As to `CCCC(=O)SCCOP(=O)(Oc1cccnc1)C(F)(F)c1ccc2sc(C(=O)N[C@H]3CCCC[C@H]4CC[C@@H](C(=O)N5C[C@@H](C#N)[C@H](c6ccccc6)C5)N4C3=O)cc2c1` (single isomer, unassigned) [Compound 139, S-(2-((((2-(((3S,6S,10aS)-3-((3S,4R or 3R,4S)-3-cyano-4-phenylpyrrolidine-1-carbonyl)-5-oxodecahydro-pyrrolo[1,2-a]azocin-6-yl)carbamoyl)benzo[b]thiophen-5-yl)difluoromethyl) (pyridin-3-yloxy)phosphoryl)oxy)ethyl) butanethioate], the IC50 was below 0.1 µM in assay [1] (pSTAT6, PBMC) and 0.1 to 1 µM in assay [2].

Regarding `CC(C)(C)C(=O)OCOP(=O)(Cc1ccc2sc(C(=O)N[C@H]3CCCC[C@H]4CC[C@@H](C(=O)N5C[C@@H](C#N)[C@H](c6ccccc6)C5)N4C3=O)cc2c1)OCOC(=O)C(C)(C)C` (single isomer, unassigned) [Compound 144, ((((2-(((3S,6S,10aS)-3-((3S,4R or 3R,4S)-3-cyano-4-phenylpyrrolidine-1-carbonyl)-5-oxodecahydro-pyrrolo[1,2-a]azocin-6-yl)carbamoyl)benzo[b]thiophen-5-yl)methyl)phosphoryl)bis (oxy))bis (methylene) bis(2,2-dimethylpropanaote)], the IC50 fell in the range of 0.1 to 1 µM in assay [1] (PBMC, read-out: pSTAT6) and 1 to 3 µM in assay [2].
